Nine compounds from patent US20230017045A1, “PYRIDINE AND PYRIMIDINE CARBOXYLATE HERBICIDES AND METHODS OF USE THEREOF” (Dow AgroSciences LLC, priority 2017, published 2023) can be followed below.

In this experiment the test system is test plant species. As to the kind of experiment: Post-emergent herbicidal activity test (greenhouse, foliar spray, visual growth reduction). The format is in vivo. As to conditions: post-emergence, 336 h, 140 g ai/ha. The gist of the method:
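Visual scoring 14 d after treatment (0 = no injury, 100 = complete control) against nontreated and solvent-blank plants gave percent growth reduction. Foliar application used a track sprayer delivering 187 L/ha to seedlings at first or second true leaf stage, grown at 23–29 °C day, ~15 h photoperiod.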

[1] abbreviates: ECHCG: barnyardgrass (Echinochloa crus-galli), 14 days after application, read-out: Visual Growth Reduction (%) 14 Days After Application, ECHCG.
The mark [2] stands for this setting: IPOHE: ivy-leaf morning glory (Ipomoea hederacea), 14 days after application, read-out: Visual Growth Reduction (%) 14 Days After Application, IPOHE.
Setting [3] is: KCHSC: kochia (Bassia scoparia), 14 days after application, read-out: Visual Growth Reduction (%) 14 Days After Application, KCHSC.
[4] abbreviates: ORYSA: rice (Oryza sativa), 14 days after application, read-out: Visual Growth Reduction (%) 14 Days After Application, ORYSA.
Setting [5] is: SETFA: giant foxtail (Setaria faberi), 14 days after application, read-out: Visual Growth Reduction (%) 14 Days After Application, SETFA.
[6] abbreviates: SORVU: grain sorghum (Sorghum vulgare), 14 days after application, read-out: Visual Growth Reduction (%) 14 Days After Application, SORVU.
Where [7] appears, read: STEME: common chickweed (Stellaria media), 14 days after application, read-out: Visual Growth Reduction (%) 14 Days After Application, STEME.
Where [8] appears, read: TRZAS: wheat, spring (Triticum aestivum), 14 days after application, read-out: Visual Growth Reduction (%) 14 Days After Application, TRZAS.
[9] abbreviates: blackgrass (Alopecurus myosuroides), 14 Days After Application, read-out: Visual Growth Reduction (%) ALOMY.
Setting [10] is: canada thistle (Cirsium arvense), 14 Days After Application, read-out: Visual Growth Reduction (%) CIRAR.
Setting [11] is: crabgrass (Digitaria sanguinalis), 14 Days After Application, read-out: Visual Growth Reduction (%) DIGSA.
The mark [12] stands for this setting: lambsquarters (Chenopodium album), 14 Days After Application, read-out: Visual Growth Reduction (%) CHEAL.
The mark [13] stands for this setting: redroot pigweed (Amaranthus retroflexus), 14 Days After Application, read-out: Visual Growth Reduction (%) AMARE.
Setting [14] is: wild oat (Avena fatua), 14 Days After Application, read-out: Visual Growth Reduction (%) AVEFA.
[15] abbreviates: yellow nutsedge (Cyperus esculentus), 14 Days After Application, read-out: Visual Growth Reduction (%) CYPES.

Like-named read-outs stand apart in the source and are kept apart here.

Turning to `COC(=O)c1nc(-c2ccc([S+](C)[O-])cc2)c(F)cc1Cl` (stereo not drawn) [F263, Methyl 3-chloro-5-fluoro-6-(4-(methylsulfinyl)phenyl)picolinate], the pest or weed control at 140 g/ha was 0 to 29% under setting [1]; 0 to 29% under setting [2]; 0 to 29% under setting [3]; 0 to 29% under setting [4]; 0 to 29% under setting [5]; 0 to 29% under setting [6]. The pest or weed control at 140 g/ha under setting [7] is 0 to 29%; the pest or weed control at 140 g/ha under setting [8] was in the range of 0 to 29%; the pest or weed control at 140 g/ha under setting [9] was in the range of 0 to 29%; the pest or weed control at 140 g/ha under setting [10] was in the range of 0 to 29%; the pest or weed control at 140 g/ha under setting [11] lay in the range of 0 to 29%; the pest or weed control at 140 g/ha under setting [12] was 0 to 29%. Further, the pest or weed control at 140 g/ha under setting [13] lay within 0 to 29%, the pest or weed control at 140 g/ha under setting [14] was in the range of 0 to 29% and the pest or weed control at 140 g/ha under setting [15] is 0 to 29%.

For the compound `COC(=O)c1nc(-c2cccc(F)c2OC)c(F)cc1Cl` [F264, Methyl 3-chloro-5-fluoro-6-(3-fluoro-2-methoxyphenyl) picolinate], the pest or weed control at 140 g/ha is, setting by setting: under setting [1], 0 to 29%; under setting [2], 95 to 100%; under setting [3], 0 to 29%; under setting [4], 0 to 29%; under setting [5], 0 to 29%; under setting [6], 0 to 29%. Also, the pest or weed control at 140 g/ha lay within 0 to 29% under setting [7]; 0 to 29% under setting [8]; 0 to 29% under setting [9]; 30 to 44% under setting [10]; 0 to 29% under setting [11]; 75 to 84% under setting [12]. For the same compound, the pest or weed control at 140 g/ha under setting [13] is 0 to 29%, the pest or weed control at 140 g/ha under setting [14] lay within 0 to 29% and the pest or weed control at 140 g/ha under setting [15] lay within 0 to 29%.

`COC(=O)c1nc(-c2cc3ncsc3cc2F)c(F)cc1Cl` [F265, Methyl 3-chloro-5-fluoro-6-(6-fluorobenzo[d]thiazol-5-yl)picolinate]: the pest or weed control at 140 g/ha is, setting by setting: under setting [1], 0 to 29%; under setting [2], 0 to 29%; under setting [3], 0 to 29%; under setting [4], 0 to 29%; under setting [5], 0 to 29%; under setting [6], 0 to 29%. For the same compound, the pest or weed control at 140 g/ha reads like this: under setting [7], 0 to 29%; under setting [8], 0 to 29%; under setting [9], 0 to 29%; under setting [10], 0 to 29%; under setting [11], 0 to 29%; under setting [12], 75 to 84%. Besides, the pest or weed control at 140 g/ha reads like this: under setting [13], 0 to 29%; under setting [14], 0 to 29%; under setting [15], 0 to 29%.

Regarding `COC(=O)c1nc(-c2ccc3ccsc3c2F)c(F)cc1Cl` [F266, Methyl 3-chloro-5-fluoro-6-(7-fluorobenzo[b]thiophen-6-yl)picolinate], the pest or weed control at 140 g/ha fell in the range of 0 to 29% under setting [1]; 0 to 29% under setting [2]; 0 to 29% under setting [3]; 0 to 29% under setting [4]; 0 to 29% under setting [5]; 0 to 29% under setting [6]. For the same compound, the pest or weed control at 140 g/ha lay within 0 to 29% under setting [7]; 0 to 29% under setting [8]; 0 to 29% under setting [9]; 0 to 29% under setting [10]; 0 to 29% under setting [11]; 0 to 29% under setting [12]. In addition, the pest or weed control at 140 g/ha lay within 0 to 29% under setting [13], 0 to 29% under setting [14] and 0 to 29% under setting [15].

Consider `Cc1cc(C(F)(F)F)ccc1-c1nc(C(=O)O)c(Cl)cc1F` [F267, 3-Chloro-5-fluoro-6-(2-methyl-4-(trifluoromethyl)phenyl) picolinic acid], for which the pest or weed control at 140 g/ha under setting [1] was in the range of 75 to 84%; the pest or weed control at 140 g/ha under setting [2] is 95 to 100%; the pest or weed control at 140 g/ha under setting [3] lay within 60 to 74%; the pest or weed control at 140 g/ha under setting [4] fell in the range of 0 to 29%; the pest or weed control at 140 g/ha under setting [5] was in the range of 85 to 94%; the pest or weed control at 140 g/ha under setting [6] is 95 to 100%. In addition, the pest or weed control at 140 g/ha reads like this: under setting [7], 0 to 29%; under setting [8], 60 to 74%; under setting [9], 30 to 44%; under setting [10], 85 to 94%; under setting [11], 85 to 94%; under setting [12], 95 to 100%. For the same compound, the pest or weed control at 140 g/ha lay in the range of 95 to 100% under setting [13], 45 to 59% under setting [14] and 0 to 29% under setting [15].

On to `COC(=O)c1nc(-c2ccc(F)cc2F)ccc1Cl` [F268, Methyl 3-chloro-6-(2,4-difluorophenyl) picolinate], for which the pest or weed control at 140 g/ha fell in the range of 0 to 29% under setting [1]; 0 to 29% under setting [2]; 0 to 29% under setting [3]; 0 to 29% under setting [4]; 0 to 29% under setting [5]; 60 to 74% under setting [6]. For the same compound, the pest or weed control at 140 g/ha by setting is: under setting [7], 0 to 29%; under setting [8], 0 to 29%; under setting [9], 0 to 29%; under setting [10], 30 to 44%; under setting [11], 0 to 29%; under setting [12], 60 to 74%. In addition, the pest or weed control at 140 g/ha reads like this: under setting [13], 0 to 29%; under setting [14], 0 to 29%; under setting [15], 0 to 29%.

Regarding `COC(=O)c1nc(-c2ccc(OC)nc2)ccc1Cl` [F269, Methyl 5-chloro-6′-methoxy-[2,3′-bipyridine]-6-carboxylate], the pest or weed control at 140 g/ha was 0 to 29% under setting [1]; 0 to 29% under setting [2]; 30 to 44% under setting [3]; 0 to 29% under setting [4]; 0 to 29% under setting [5]; 0 to 29% under setting [6]. Moreover, the pest or weed control at 140 g/ha lay within 0 to 29% under setting [7]; 0 to 29% under setting [8]; 0 to 29% under setting [9]; 30 to 44% under setting [10]; 0 to 29% under setting [11]; 0 to 29% under setting [12]. Moreover, the pest or weed control at 140 g/ha lay within 0 to 29% under setting [13], 0 to 29% under setting [14] and 0 to 29% under setting [15].

Regarding `COC(=O)c1nc(-c2ccc(Cl)cc2F)ccc1Cl` [F270, Methyl 3-chloro-6-(4-chloro-2-fluorophenyl) picolinate], the pest or weed control at 140 g/ha is, setting by setting: under setting [1], 0 to 29%; under setting [2], 95 to 100%; under setting [3], 75 to 84%; under setting [4], 0 to 29%; under setting [5], 0 to 29%; under setting [6], 85 to 94%. In addition, the pest or weed control at 140 g/ha under setting [7] fell in the range of 30 to 44%; the pest or weed control at 140 g/ha under setting [8] lay within 45 to 59%; the pest or weed control at 140 g/ha under setting [9] lay in the range of 0 to 29%; the pest or weed control at 140 g/ha under setting [10] was 75 to 84%; the pest or weed control at 140 g/ha under setting [11] was 85 to 94%; the pest or weed control at 140 g/ha under setting [12] was 85 to 94%. Moreover, the pest or weed control at 140 g/ha is 45 to 59% under setting [13], 0 to 29% under setting [14] and 45 to 59% under setting [15].

As for `COC(=O)c1nc(-c2cc(Cl)c(C)cc2F)ccc1Cl` [F271, Methyl 3-chloro-6-(5-chloro-2-fluoro-4-methylphenyl) picolinate], the pest or weed control at 140 g/ha under setting [1] lay within 0 to 29%; the pest or weed control at 140 g/ha under setting [2] was 0 to 29%; the pest or weed control at 140 g/ha under setting [3] lay within 0 to 29%; the pest or weed control at 140 g/ha under setting [4] was in the range of 0 to 29%; the pest or weed control at 140 g/ha under setting [5] was 0 to 29%; the pest or weed control at 140 g/ha under setting [6] is 0 to 29%. The pest or weed control at 140 g/ha lay within 0 to 29% under setting [7]; 0 to 29% under setting [8]; 0 to 29% under setting [9]; 0 to 29% under setting [10]; 0 to 29% under setting [11]; 60 to 74% under setting [12]. The pest or weed control at 140 g/ha was in the range of 0 to 29% under setting [13], 0 to 29% under setting [14] and 0 to 29% under setting [15].
